Test results taken from patent US20040023972A1, “Use of substituted imidazo[1,2-a]-pyridin-, -pyrimidin-and-pyrazin-3-yl-amine derivatives in the preparation of medicaments for inhibiting NOS” (Gruenenthal GmbH, priority 2000, published 2004).

Target: T1, NO synthase (Rattus norvegicus, UniProt P29476)
T1 construct: the supernatant was then removed by decantation and frozen in portions at −80° C; from tissue; host or cells: rat cerebellum, 20,000 g supernatant of homogenate
Assay: HTS-NOS assay (NOS assay): conversion of radioactive arginine, cation-exchanger filter plate
Type: biochemical
Conditions: 10 μM
Procedure, shortened: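 Percent inhibition was derived by comparing remaining radioactive arginine with compound-free controls. Arginine retained on phosphate cation-exchanger filters was counted after citrulline washout, following a 5-60 min room-temperature (25 °C) reaction of labelled arginine, NADPH-containing medium and rat cerebellar homogenate supernatant.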

| HTS-NOS assay: % inhibition (10 μM) [%] | Compound |
| --- | --- |
| 61 | CC(=O)N(c1c(-c2ccccc2C(F)(F)F)nc2cc(C)ccn12)C1CCCCC1 [Example 164, N-cyclohexyl-N-[7-methyl-2-(2-trifluorO-methyl-phenyl)-imidazo[1,2-a]pyridin-3-yl]-acetamide] |
| 68 | CC(=O)OCc1ccc(-c2nc3cc(C)ccn3c2N(C(C)=O)C2CCCCC2)o1 [Example 167, acetic acid 5-[3-(acetyl-cyclohexyl-amino)-7-methyl-imidazo[1,2-a]pyridin-2-yl]-furan-2-yl methyl ester] |

Same assay, conditions: read-out: HTS-NOS assay: % inhibition (10 μM)

| inhibition at 10 µM [%] | Compound |
| --- | --- |
| 51 | CC(=O)N(c1c(-c2sccc2Br)nc2ccccn12)C1CCCCC1 [Example 161, N-[2-(3-bromo-thiophen-2-yl)-imidazo[1,2-a]pyridin-3-yl]-N-cyclohexyl-acetamide] |
| 67 | CC(=O)N(c1c(-c2ccc(C)cc2)nc2cc(C)cc(C)n12)C(C)(C)CC(C)(C)C [Example 162, N-(5,7-dimethyl-2-p-tolyl-imidazo[1,2-a]pyridin-3-yl)-N-(1,1,3,3-tetramethylbutyl)-acetamide] |
| 63 | CC(=O)N(c1c(-c2ccncc2)nc2cc(C)ccn12)C1CCCCC1 [Example 163, N-cyclohexyl-N-(7-methyl-2-pyridin-4-yl-imidazo[1,2-a]pyridin-3-yl)-acetamide] |
| 67 | CC(=O)N(c1c(-c2ccco2)nc2c(Br)cc(Br)cn12)C(C)(C)CC(C)(C)C [Example 165, N-(6,8-dibromo-2-furan-2-yl-imidazo[1,2-a]pyridin-3-yl)-N-(1,1,3,3-tetramethylbutyl)-acetamide] |
| 61 | CC(=O)N(c1c(-c2ccncc2)nc2cc(C)ccn12)C(C)(C)CC(C)(C)C [Example 166, N-(7-methyl-2-pyridin-4-yl-imidazo[1,2-a]pyridin-3-yl)-N-(1,1,3,3-tetramethylbutyl)-acetamide] |
| 56 | CC(=O)N(c1c(-c2cccnc2)nc2cc(C)ccn12)C(C)(C)CC(C)(C)C [Example 168, N-(7-methyl-2-pyridin-3-yl-imidazo[1,2-a]pyridin-3-yl)-N-(1,1,3,3-tetramethylbutyl)-acetamide] |
| 57 | CC(=O)N(c1c(C)cccc1C)c1c(-c2cccc(Cl)c2Cl)nc2cc(C)cc(C)n12 [Example 169, N-[2-(2,3-dichloro-phenyl)-5,7-dimethyl-imidazo[1,2-a]pyridin-3-yl]-N-(2,6-dimethyl-phenyl)-acetamide] |
| 65 | CC(=O)N(c1c(-c2ccc(C)o2)nc2cc(C)cc(C)n12)C1CCCCC1 [Example 170, N-cyclohexyl-N-[5,7-dimethyl-2-(5-methyl-furan-2-yl)-imidazo[1,2-a]pyridin-3-yl]-acetamide] |
| 63 | CCCCN(C(C)=O)c1c(-c2cccc(OC)c2OC)nc2cc(C)cc(C)n12 [Example 171, N-butyl-N-[2-(2,3-dimethoxy-phenyl)-5,7-dimethyl-imidazo[1,2-a]pyridin-3-yl]-acetamide] |
| 62 | COc1ccccc1-c1nc2cc(C)cc(C)n2c1N(C(C)=O)C(C)(C)CC(C)(C)C [Example 172, N-[2-(2-methoxy-phenyl)-5,7-dimethyl-imidazo[1,2-a]pyridin-3-yl]-N-(1,1,3,3-tetramethyl-butyl)-acetamide] |
| 67 | CC(=O)N(c1c(-c2ccc([N+](=O)[O-])o2)nc2cc(C)cc(C)n12)C1CCCCC1 [Example 173, N-cyclohexyl-N-[5,7-dimethyl-2-(5-nitro-furan-2-yl)-imidazo[1,2-a]pyridin-3-yl]-acetamide] |
| 68 | COC(=O)CN(C(C)=O)c1c(C)nc2cc(C)ccn12 [Example 174, [acetyl-(2,7-dimethyl-imidazo[1,2-a]pyridin-3-yl)-amino]-acetic acid methyl ester] |
| 52 | CC(=O)N(c1c(C)nc2cc(C)cc(C)n12)C1CCCCC1 [Example 175, N-cyclohexyl-N-(2,5,7-trimethyl-imidazo[1,2-a]pyridin-3-yl)-acetamide] |
